Data published in paper doi:10.1101/2024.08.19.608619, “Discovery of potent SARS-CoV-2 nsp3 macrodomain inhibitors uncovers lack of translation to cellular antiviral response” (bioRxiv, 2024).

How the values were obtained:
CB1 (h) = target: T1, CB1 (h) (Homo sapiens, UniProt P21554); assay: In vitro CEREP profiling, CB1 (h) (agonist radioligand); assay type: binding; settings: test compound 10 uM
T1 construct: purchased Eurofins Cerep (SafetyScreen44), recognised from the panel format
Text: (§1) Supplement media-1.zip/Safety_Panel_Profile.csv, table | column: perc_inhibition

[1] = In vitro human hepatocyte stability; assay type: in vitro ADME
Text: Supplement media-1.zip/Hepatocyte_Stability.csv, table | column: clint; t_half

GR (h) = target: T2, GR (h) (Homo sapiens, UniProt P04150); assay: In vitro CEREP profiling, GR (h) (agonist radioligand); assay type: binding; settings: test compound concentration 10 uM
T2 construct: purchased Eurofins Cerep (SafetyScreen44), recognised from the panel format
T2 sequence (P04150 1-777): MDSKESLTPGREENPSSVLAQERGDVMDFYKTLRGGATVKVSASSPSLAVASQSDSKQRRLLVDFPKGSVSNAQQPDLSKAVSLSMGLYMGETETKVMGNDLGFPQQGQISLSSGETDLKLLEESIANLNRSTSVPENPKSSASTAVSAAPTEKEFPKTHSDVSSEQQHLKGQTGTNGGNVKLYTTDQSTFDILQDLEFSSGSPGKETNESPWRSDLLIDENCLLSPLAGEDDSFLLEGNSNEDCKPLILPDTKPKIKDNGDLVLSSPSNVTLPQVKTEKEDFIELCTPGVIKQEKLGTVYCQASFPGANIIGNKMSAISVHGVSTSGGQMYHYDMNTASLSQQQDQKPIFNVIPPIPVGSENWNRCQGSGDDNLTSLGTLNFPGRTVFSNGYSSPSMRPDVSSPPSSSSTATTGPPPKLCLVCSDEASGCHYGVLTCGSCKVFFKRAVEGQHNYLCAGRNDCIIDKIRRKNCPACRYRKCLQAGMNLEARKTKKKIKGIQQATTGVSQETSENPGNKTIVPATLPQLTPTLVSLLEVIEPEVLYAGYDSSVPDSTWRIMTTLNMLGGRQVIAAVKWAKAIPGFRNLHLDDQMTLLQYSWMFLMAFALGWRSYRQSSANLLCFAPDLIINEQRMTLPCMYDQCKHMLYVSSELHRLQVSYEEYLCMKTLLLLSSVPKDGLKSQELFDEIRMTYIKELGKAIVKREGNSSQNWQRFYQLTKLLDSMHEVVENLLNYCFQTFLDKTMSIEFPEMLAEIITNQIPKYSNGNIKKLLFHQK
Text: as §1

CYP = CYP inhibition; assay type: in vitro ADME; settings: In vitro CYP inhibition pooled; for potency: potency class in words
Text: Supplement media-1.zip/CYP_Inhibition.csv, table | column: ic50; potency

NMDA = assay: In vitro CEREP profiling, NMDA (antagonist radioligand); assay type: binding; settings: test compound concentration 10 uM
Text: as §1

delta (DOP) (h) = target: T3, delta (DOP) (h) (Homo sapiens, UniProt P41143); assay: In vitro CEREP profiling, delta (DOP) (h) (agonist radioligand); assay type: binding; settings: test compound concentration 10 uM
T3 construct: purchased Eurofins Cerep (SafetyScreen44), recognised from the panel format
T3 sequence (P41143 whole entry): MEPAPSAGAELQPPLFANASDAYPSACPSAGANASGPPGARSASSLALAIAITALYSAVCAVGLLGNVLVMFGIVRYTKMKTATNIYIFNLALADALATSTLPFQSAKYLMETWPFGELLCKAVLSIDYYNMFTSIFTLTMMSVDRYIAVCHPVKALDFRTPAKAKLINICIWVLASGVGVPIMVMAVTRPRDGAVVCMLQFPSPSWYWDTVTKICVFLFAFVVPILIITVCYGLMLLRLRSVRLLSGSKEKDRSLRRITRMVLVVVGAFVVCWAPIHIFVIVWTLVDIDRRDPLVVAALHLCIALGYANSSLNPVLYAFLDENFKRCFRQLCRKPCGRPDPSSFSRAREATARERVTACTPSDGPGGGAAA
Text: as §1

MAO-A = target: T4, MAO-A (Rattus norvegicus, UniProt P21396); assay: In vitro CEREP profiling, MAO-A (antagonist radioligand); assay type: binding; settings: test compound concentration 10 uM
T4 construct: purchased Eurofins Cerep (SafetyScreen44), recognised from the panel format
T4 sequence (P21396 1-526): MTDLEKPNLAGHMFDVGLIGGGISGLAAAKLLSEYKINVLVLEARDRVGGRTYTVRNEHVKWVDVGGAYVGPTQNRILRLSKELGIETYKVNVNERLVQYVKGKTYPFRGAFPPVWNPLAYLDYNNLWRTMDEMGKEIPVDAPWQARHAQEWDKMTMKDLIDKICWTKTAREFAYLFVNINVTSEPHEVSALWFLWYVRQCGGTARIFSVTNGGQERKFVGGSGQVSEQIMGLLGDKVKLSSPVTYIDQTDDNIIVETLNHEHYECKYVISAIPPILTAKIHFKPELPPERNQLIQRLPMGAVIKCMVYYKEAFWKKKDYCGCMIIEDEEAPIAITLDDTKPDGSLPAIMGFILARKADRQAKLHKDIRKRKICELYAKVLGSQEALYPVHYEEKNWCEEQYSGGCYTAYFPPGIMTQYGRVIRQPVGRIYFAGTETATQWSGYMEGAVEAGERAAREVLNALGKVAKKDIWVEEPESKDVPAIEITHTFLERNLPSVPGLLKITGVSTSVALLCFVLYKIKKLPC
Text: as §1

5-HT2B (h) = target: T5, 5-HT2B (h) (Homo sapiens, UniProt P41595); assay: In vitro CEREP profiling, 5-HT2B (h) (agonist radioligand); assay type: binding; settings: test compound concentration 10 uM
T5 construct: purchased Eurofins Cerep (SafetyScreen44), recognised from the panel format
T5 sequence (P41595 whole entry): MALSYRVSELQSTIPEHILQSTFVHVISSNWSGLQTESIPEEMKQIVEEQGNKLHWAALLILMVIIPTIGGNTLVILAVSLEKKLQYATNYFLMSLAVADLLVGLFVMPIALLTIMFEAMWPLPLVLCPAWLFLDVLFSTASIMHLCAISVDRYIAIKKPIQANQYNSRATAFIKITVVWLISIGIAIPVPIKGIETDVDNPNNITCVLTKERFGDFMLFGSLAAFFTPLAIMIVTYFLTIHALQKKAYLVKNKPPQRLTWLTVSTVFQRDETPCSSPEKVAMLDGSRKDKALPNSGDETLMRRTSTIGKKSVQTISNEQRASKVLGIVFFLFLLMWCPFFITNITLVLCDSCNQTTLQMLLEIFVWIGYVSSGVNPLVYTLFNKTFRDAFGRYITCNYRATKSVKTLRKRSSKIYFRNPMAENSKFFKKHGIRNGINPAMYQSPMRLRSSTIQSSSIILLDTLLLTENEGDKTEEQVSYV
Text: as §1

PDE4D2 (h) = target: T6, PDE4D2 (h) (Homo sapiens, UniProt Q08499); assay: In vitro CEREP profiling, PDE4D2 (h); assay type: biochemical; settings: test compound concentration 10 uM; Enzyme and Cell-based assays
T6 construct: purchased Eurofins Cerep (SafetyScreen44), recognised from the panel format
T6 sequence (Q08499 303-809): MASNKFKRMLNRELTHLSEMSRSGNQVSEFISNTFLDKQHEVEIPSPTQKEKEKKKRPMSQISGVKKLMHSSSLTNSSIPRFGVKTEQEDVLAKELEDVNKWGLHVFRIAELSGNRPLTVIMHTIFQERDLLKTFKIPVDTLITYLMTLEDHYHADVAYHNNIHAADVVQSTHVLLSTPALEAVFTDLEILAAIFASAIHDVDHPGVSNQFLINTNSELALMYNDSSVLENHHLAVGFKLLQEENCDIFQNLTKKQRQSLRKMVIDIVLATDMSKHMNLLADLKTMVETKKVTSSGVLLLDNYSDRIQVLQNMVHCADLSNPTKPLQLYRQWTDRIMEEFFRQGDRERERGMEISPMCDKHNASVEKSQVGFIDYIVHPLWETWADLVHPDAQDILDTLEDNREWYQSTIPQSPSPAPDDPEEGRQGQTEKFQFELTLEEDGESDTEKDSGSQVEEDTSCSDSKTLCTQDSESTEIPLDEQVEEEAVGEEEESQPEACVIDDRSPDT
Text: as §1

5-HT2A (h) = target: T7, 5-HT2A (h) (Homo sapiens, UniProt P28223); assay: In vitro CEREP profiling, 5-HT2A (h) (agonist radioligand); assay type: binding; settings: test compound concentration 10 uM
T7 construct: purchased Eurofins Cerep (SafetyScreen44), recognised from the panel format
T7 sequence (P28223 whole entry): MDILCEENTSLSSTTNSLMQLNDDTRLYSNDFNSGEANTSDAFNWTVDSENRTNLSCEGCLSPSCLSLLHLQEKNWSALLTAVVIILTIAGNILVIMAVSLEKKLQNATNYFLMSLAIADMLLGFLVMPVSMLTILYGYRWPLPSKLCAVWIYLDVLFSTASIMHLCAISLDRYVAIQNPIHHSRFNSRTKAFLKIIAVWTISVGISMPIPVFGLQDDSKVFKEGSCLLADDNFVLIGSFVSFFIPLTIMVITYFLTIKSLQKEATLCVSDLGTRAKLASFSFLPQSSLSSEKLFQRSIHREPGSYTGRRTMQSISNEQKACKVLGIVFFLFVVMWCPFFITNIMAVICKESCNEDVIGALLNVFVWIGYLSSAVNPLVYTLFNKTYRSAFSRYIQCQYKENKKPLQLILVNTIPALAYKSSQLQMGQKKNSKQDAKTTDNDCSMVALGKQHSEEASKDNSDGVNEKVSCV
Text: as §1

KOR receptor = target: T8, KOR receptor (Homo sapiens, UniProt P41145); assay: Eurofins CEREP panel, KOR; assay type: binding; settings: kappa (h) (KOP) (agonist radioligand); test compound concentration 10 uM
T8 construct: purchased Eurofins Cerep (SafetyScreen44), recognised from the panel format
T8 sequence (P41145 whole entry): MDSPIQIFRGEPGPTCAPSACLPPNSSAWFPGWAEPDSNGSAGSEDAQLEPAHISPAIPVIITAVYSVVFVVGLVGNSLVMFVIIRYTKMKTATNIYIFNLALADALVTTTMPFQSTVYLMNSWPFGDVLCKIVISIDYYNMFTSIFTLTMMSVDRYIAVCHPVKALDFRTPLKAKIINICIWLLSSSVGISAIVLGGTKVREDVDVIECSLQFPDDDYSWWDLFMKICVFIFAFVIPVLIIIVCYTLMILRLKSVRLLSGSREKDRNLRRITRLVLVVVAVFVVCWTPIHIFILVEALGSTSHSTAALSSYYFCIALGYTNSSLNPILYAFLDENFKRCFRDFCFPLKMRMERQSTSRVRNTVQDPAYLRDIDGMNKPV

ETA (h) = target: T9, ETA (h) (Homo sapiens, UniProt P25101); assay: In vitro CEREP profiling, ETA (h) (agonist radioligand); assay type: binding; settings: test compound 10 uM
T9 construct: purchased Eurofins Cerep (SafetyScreen44), recognised from the panel format
T9 sequence (P25101 21-427): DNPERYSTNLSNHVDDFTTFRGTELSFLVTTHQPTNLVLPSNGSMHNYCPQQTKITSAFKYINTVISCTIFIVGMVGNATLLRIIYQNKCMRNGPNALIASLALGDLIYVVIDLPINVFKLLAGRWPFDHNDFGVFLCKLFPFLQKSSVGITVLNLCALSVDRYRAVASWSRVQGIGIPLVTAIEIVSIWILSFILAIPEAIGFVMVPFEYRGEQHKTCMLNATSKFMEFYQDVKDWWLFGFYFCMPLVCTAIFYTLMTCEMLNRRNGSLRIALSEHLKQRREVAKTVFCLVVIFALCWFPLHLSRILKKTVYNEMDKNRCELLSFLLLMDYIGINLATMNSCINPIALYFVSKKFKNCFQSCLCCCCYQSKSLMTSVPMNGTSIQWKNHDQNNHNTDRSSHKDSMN
Text: as §1

T1 sequence (P21554 whole entry): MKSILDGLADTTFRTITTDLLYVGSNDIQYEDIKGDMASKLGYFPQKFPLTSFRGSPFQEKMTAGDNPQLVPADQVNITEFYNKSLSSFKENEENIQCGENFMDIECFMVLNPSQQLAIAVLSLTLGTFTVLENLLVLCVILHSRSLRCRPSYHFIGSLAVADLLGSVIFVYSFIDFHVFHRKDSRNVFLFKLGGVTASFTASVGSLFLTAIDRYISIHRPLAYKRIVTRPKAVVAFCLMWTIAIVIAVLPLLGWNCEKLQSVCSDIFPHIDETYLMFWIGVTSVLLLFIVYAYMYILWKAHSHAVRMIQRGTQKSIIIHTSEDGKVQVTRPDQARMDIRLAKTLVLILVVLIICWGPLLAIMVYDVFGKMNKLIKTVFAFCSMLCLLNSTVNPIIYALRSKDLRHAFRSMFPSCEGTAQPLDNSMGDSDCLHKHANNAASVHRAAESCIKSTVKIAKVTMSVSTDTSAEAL

Row | SMILES | perc_inhibition (% inhibition of the binding of a ligand specific for each target) (CB1 (h)) [%] | clint [1] [uL/min/1E6 cells] | t_half [1] [min] | perc_inhibition (% inhibition of the binding of a ligand specific for each target) (GR (h)) [%] | IC50 (CYP; isoform 1A2) [µM] | potency (CYP; isoform 1A2) | IC50 (CYP; isoform 2C9) [µM] | potency (CYP; isoform 2C9) | IC50 (CYP; isoform 2C19) [µM] | potency (CYP; isoform 2C19) | IC50 (CYP; isoform 2D6) [µM] | potency (CYP; isoform 2D6) | IC50 (CYP; isoform 3A4) [µM] | potency (CYP; isoform 3A4) | perc_inhibition (% inhibition of the binding of a ligand specific for each target) (NMDA) [%] | perc_inhibition (% inhibition of the binding of a ligand specific for each target) (delta (DOP) (h)) [%] | perc_inhibition (% inhibition of the binding of a ligand specific for each target) (MAO-A) [%] | perc_inhibition (% inhibition of the binding of a ligand specific for each target) (5-HT2B (h)) [%] | perc_inhibition: % inhibition of control enzyme activity, PDE4D2 (h) (PDE4D2 (h)) [%] | perc_inhibition (% inhibition of the binding of a ligand specific for each target) (5-HT2A (h)) [%] | other results
1 | CC(C)[C@H](Nc1ncnc2[nH]ccc12)c1ccc2c(c1)S(=O)(=O)CCC2 [ASAP-0008674] | -13 | 27.9 | 24.8 | 10 | > 50 | weak | 18.2 | weak | 15 | weak | > 50 | weak | 3.2 | moderate | -1 | 30 | 7 | 54 | 36 | 12 | perc_inhibition (% inhibition of the binding of a ligand specific for each target) (KOR receptor): 84%; perc_inhibition (% inhibition of the binding of a ligand specific for each target) (ETA (h)): -1%
2 | CC(C)[C@H](Nc1ncnc2[nH]c(-c3cnn(C)c3C#N)cc12)c1ccc2c(n1)OCCO2 [ASAP-0010715] | 46 | 28.7 | 24.2 | 11 | 35.2 | weak | 5.93 | moderate | 16.9 | weak | 27.7 | weak | 3.69 | moderate | 2 | 58 | 4 | 18 | 70 | 15 | perc_inhibition (% inhibition of the binding of a ligand specific for each target) (KOR receptor): 31%; perc_inhibition (% inhibition of the binding of a ligand specific for each target) (ETA (h)): 42%
3 | CC(C)[C@@H](Nc1ncnc2[nH]c(-c3cnn(C)c3C#N)cc12)c1ccc2c(n1)OCCO2 [ASAP-0010716] | 14 | 182.0 | 3.81 | 22 | 8.86 | moderate | 4.34 | moderate | 9.51 | moderate | 22.7 | weak | 2.07 | moderate | 1 | 71 | 8 | 40 | 44 | 14 | perc_inhibition (% inhibition of the binding of a ligand specific for each target) (KOR receptor): 56%; perc_inhibition (% inhibition of the binding of a ligand specific for each target) (ETA (h)): 5%
